For one data set, the target named is CYP2D6 (Homo sapiens, UniProt P10635). Kind of data set: biochemical.
The nature of data set [1]: Plasma protein binding (equilibrium dialysis), Method B5. Format: in vitro ADME. The note with it: human plasma, 60 min at 37° C., typically 10 μM. From the text: B5. Plasma Protein Binding
The pharmacokinetic and pharmacodynamic properties of drugs are largely a function of the reversible binding of drugs to plasma or serum proteins such as albumin and α1-acid glycoprotein. In general, only unbound drug is available for diffusion or transport across cell membranes, and for interaction at the pharmacological target. On the other hand, drugs with low plasma protein binding generally have large volumes of distribution and rapid clearance since only unbound drug is available for glomerular filtration and, in some cases, hepatic clearance. Thus, the extent of plasma protein binding can influence efficacy, distribution and elimination. The ideal range for plasma protein binding is in the range of 87-98% for most drug products.
Protein binding studies were performed using human plasma. Briefly, 96-well microplates were used to incubate various concentrations of the test article for 60 min at 37° C. A concentration of 10 μM was a typical selection to be employed in this study. Bound and unbound fractions are separated by equilibrium dialysis, where the concentration remaining in the unbound fraction is quantified by LC-MS or LC-MS-MS analysis. […].
Background: Equilibrium dialysis compares concentrations on both sides of a semipermeable membrane.

The test system of data set [2] is rat stomach fundus strips. The data set is described as follows: Ex-vivo potency evaluation on the rat stomach fundus (inhibition of ghrelin-induced contractility), Method B10. The note with it: EFS. In short, it runs like this: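 Male Wistar rat fundus strips in Krebs at 37 °C (5% CO2 in O2), 1.5 g resting tension, were subjected to EFS (0.5 ms pulses, 5 Hz, 70 V, 30 s every 3 min) with isometric tension recording. Responses were expressed as % of mean pre-drug EFS responses; IC50 for inhibiting ghrelin-induced contractility was determined.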

Another data set addresses CYP3A4 (Homo sapiens, UniProt P08684). The data set is described as follows: biochemical.
The target of data set [3] is T1, ghrelin receptor (HEK-GHSR1 stable cells) (Homo sapiens, UniProt Q92847).
T1 construct: expressed in transfected cells
T1 sequence (Q92847 whole entry): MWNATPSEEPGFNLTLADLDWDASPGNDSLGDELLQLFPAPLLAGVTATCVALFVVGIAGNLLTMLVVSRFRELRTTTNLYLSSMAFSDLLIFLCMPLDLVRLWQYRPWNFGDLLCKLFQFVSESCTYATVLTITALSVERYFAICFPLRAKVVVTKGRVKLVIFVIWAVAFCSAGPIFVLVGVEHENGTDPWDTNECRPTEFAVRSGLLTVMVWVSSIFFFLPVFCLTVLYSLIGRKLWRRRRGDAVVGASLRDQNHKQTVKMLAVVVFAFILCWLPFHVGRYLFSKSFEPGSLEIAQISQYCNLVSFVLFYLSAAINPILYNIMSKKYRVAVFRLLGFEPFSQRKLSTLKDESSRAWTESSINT
The data set is described as follows: Ghrelin receptor inverse agonist assay (HTRF IP-one), Method B4. Format: cell-based. In outline:
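HEK cells stably expressing GHSR1, seeded at 100 000 cells/well overnight, exposed to compound for 30 min at 37° C. Cells then lysed and IP1 accumulation measured by HTRF (d2 plus anti-IP1 cryptate, 1 h at room temp). Wells lacking d2 served as negative control.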
For orientation: In TR-FRET formats the signal depends on donor and acceptor labels being close together.

Data set [4] can be described thus: Pharmacokinetic analysis (intravenous and oral), Method B9. Format: in vivo. In outline: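 Compound concentration was typically 2 mg/mL for intravenous and 8 mg/mL for oral dosing. PK parameters such as elimination half-life and total plasma clearance were derived.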
Where [5] appears, read: plasma, Table 10b, 2 mg/mL intravenous typically employed.

The structures appear in SMILES notation. “And” between values parts separate entries of the source, which are not always exact repeats. Equal entries are not always repeated.

Chain of CYP2D6 (P10635 whole entry): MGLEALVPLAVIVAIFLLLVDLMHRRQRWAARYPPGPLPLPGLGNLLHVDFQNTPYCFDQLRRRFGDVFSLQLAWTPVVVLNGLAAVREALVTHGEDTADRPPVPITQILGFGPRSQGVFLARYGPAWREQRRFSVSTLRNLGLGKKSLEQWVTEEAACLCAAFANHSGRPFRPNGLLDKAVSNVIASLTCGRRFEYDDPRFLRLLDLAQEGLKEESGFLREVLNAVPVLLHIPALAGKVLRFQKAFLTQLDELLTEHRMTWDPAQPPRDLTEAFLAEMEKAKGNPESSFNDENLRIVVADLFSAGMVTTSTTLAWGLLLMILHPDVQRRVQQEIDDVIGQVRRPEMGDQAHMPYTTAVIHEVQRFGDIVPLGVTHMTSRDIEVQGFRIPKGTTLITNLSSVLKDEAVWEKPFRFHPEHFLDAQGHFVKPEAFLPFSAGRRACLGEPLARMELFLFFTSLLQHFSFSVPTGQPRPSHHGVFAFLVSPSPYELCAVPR
Chain of CYP3A4 (P08684 whole entry): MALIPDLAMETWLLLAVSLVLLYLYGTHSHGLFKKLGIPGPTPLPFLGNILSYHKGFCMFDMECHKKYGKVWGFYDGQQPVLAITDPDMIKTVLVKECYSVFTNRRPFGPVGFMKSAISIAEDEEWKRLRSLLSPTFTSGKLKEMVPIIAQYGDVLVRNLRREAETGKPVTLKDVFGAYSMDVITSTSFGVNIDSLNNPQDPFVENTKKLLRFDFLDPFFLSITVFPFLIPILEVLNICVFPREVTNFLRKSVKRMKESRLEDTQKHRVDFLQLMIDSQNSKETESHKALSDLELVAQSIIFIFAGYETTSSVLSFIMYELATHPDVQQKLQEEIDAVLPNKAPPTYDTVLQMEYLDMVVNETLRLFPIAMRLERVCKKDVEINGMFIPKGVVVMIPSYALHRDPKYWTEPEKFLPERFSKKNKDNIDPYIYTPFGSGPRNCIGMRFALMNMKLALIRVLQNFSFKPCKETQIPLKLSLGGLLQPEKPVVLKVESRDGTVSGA

`Cc1cccc(C[C@H]2NC(=O)[C@H](C(C)O)N(C)C(=O)[C@H](C(C)C)NCCOc3ccccc3C[C@H](O)CNC2=O)c1` (stereo partly drawn) [Compound 1453]: the IC50 on CYP2D6 is 9.21 µM and 9.2 µM; in data set [2] it was 2.9 µM; against CYP3A4, 13.4 µM and 3.7 µM; in data set [3], 0.01 to 0.05 µM. Besides, in data set [1], the fraction unbound at 60 min, 10 μM is 0.243.

For the compound `CC(C)[C@@H]1NCCOc2ccccc2C[C@H](O)[C@@H](C)NC(=O)[C@@H](Cc2cccc(F)c2)NC(=O)[C@H](C(C)O)N(C)C1=O` (stereo partly drawn) [Compound 1503], the IC50 against CYP2D6 is 55.8 µM; in data set [2] it was 0.65 µM; at CYP3A4 it was 14.3 µM; in data set [3], 0.01 to 0.05 µM. In addition, the free fraction (fraction unbound) at 60 min, 10 μM in data set [1] was 0.221.

Take `CC[C@@H]1CCc2ccc(F)cc2OCCN[C@@H](C(C)C)C(=O)N(C)[C@@H](C(C)O)C(=O)N[C@H](Cc2c[nH]c3ccccc23)C(=O)N1` (stereo partly drawn) [Compound 1505]: in data set [4] (in vivo, po), the “Oral F” value stood at 18%. This compound also gave a half-life in data set [4] (plasma) of 1.07 h. Moreover, the clearance in data set [4] (plasma, intravenous) was found to be 23 mL/min/kg. The IC50 is 2.1 µM at CYP2D6, 0.0125 µM in data set [2], 0.7 µM against CYP3A4 and 0.1 to 0.5 µM in data set [3]. In addition, the fraction unbound at 60 min, 10 μM in data set [1] was 0.036.

Take `CC(C)[C@@H]1NCCOc2ccccc2C#C[C@@H](C)NC(=O)[C@@H](Cc2ccccc2)NC(=O)[C@H](C(C)O)N(C)C1=O` (stereo partly drawn) [Compound 1688]: the IC50 was 20.2 µM against CYP2D6, 0.0001 µM in data set [2], 8.5 µM against CYP3A4 and 0.05 to 0.1 µM in data set [3]. Also, the fraction unbound at 60 min, 10 μM in data set [1] turned out to be 0.091.

In data set [4] (setting [5]), `CC(O)[C@H]1C(=O)N[C@H](Cc2ccccc2)C(=O)NCCCc2cccc3c2OC(CC3)CN[C@@H](C2CC2)C(=O)N1C` (stereo partly drawn) [Compound 1778] gave a clearance of 26 ± 18 mL/min/kg. This compound yielded a half-life in data set [4] (setting [5]) of 0.983 ± 0.633 h. Besides, the IC50 on CYP2D6 is 21.1 µM; in data set [2], 0.012 µM; at CYP3A4, 7.7 µM; in data set [3], 0.1 to 0.5 µM. Further, the fraction unbound at 60 min, 10 μM in data set [1] is 0.076.

As for `CC[C@@H]1NCC2CCc3cccc(c3O2)CCCNC(=O)[C@@H](Cc2ccccc2)NC(=O)[C@H](C(C)O)N(C)C1=O` (stereo partly drawn) [Compound 1780], the IC50 was 35.7 µM at CYP2D6, 0.0121 µM in data set [2], 6 µM against CYP3A4 and 0.05 to 0.1 µM in data set [3]. Besides, in data set [1], the fraction unbound at 60 min, 10 μM was 0.061.

As for `CC(C)[C@@H]1NCCOc2ccccc2C2CCC(C2)NC(=O)[C@@H](Cc2ccccc2)NC(=O)[C@H](C(C)O)N(C)C1=O` (stereo partly drawn) [Compound 1848], the F in data set [4] (Oral, 8 mg/kg) was 11 ± 2%. Besides, the Tmax in data set [4] (Oral, 8 mg/kg, individual values) is listed as 30/30. Further, the AUC(0-inf) is 2600 ng·h/mL in data set [4] (plasma, Intravenous, 2 mg/kg) and 1110 ng·h/mL in data set [4] (plasma, Oral, 8 mg/kg). This compound also gave a clearance in data set [4] (plasma, Intravenous, 2 mg/kg) of 17 ± 9 mL/min/kg. Moreover, the half-life in data set [4] (plasma, Intravenous, 2 mg/kg) was 1.8 ± 0.85 h. For the same compound, the Vd in data set [4] (plasma, Intravenous, 2 mg/kg, read-out: Vz) was 2.55 ± 1.47 L/kg. For the same compound, the Cmax in data set [4] (plasma, Oral, 8 mg/kg, read-out: Cmax) worked out at 421 ± 16 ng/mL. For the same compound, the IC50 against CYP2D6 is 14.1 µM; in data set [2] it was 0.015 µM; against CYP3A4, 8 µM. Further, the fraction unbound at 60 min, 10 μM in data set [1] was 0.207.

With `CC(O)[C@H]1C(=O)N[C@H](Cc2ccccc2)C(=O)NCC#Cc2c(F)cccc2OCCN[C@@H](C2(C)CC2)C(=O)N1C` (stereo partly drawn) [Compound 1876], the bioavailability in data set [4] (plasma, Table 10b, 2 mg/mL intravenous and 8 mg/mL oral typically employed) is 54 ± 19%. Moreover, in data set [4] (setting [5]), the clearance is 28 ± 8 mL/min/kg. For the same compound, the half-life in data set [4] (setting [5]) amounted to 2.65 ± 0.267 h. Moreover, the IC50 at CYP2D6 is 23.1 µM; in data set [2] it was 0.06 µM; at CYP3A4, 8.5 µM; in data set [3], 0.05 to 0.1 µM. Also, the fraction unbound at 60 min, 10 μM in data set [1] is 0.05.

Regarding `CC(O)[C@H]1C(=O)N[C@H](Cc2ccccc2)C(=O)NCC#Cc2ccccc2OCCN[C@@H](C2(C)CC2)C(=O)N1C` (stereo partly drawn) [Compound 1878], in data set [4] (setting [5]), the clearance was found to be 35 ± 1 mL/min/kg. This compound also displayed a half-life in data set [4] (setting [5]) of 2.07 ± 0.317 h. For the same compound, the IC50 is 45.3 µM against CYP2D6, 0.03 µM in data set [2], 11.6 µM on CYP3A4 and 0.01 to 0.05 µM in data set [3]. The unbound share (fraction unbound) at 60 min, 10 μM in data set [1] was 0.127.

Turning to `CC(C)[C@@H]1NCCOc2ccccc2C2CCC(C2)NC(=O)[C@@H](Cc2ccc(F)cc2)NC(=O)[C@H](C(C)O)N(C)C1=O` (stereo partly drawn) [Compound 1903], the IC50 was found to be 8 µM against CYP2D6, 0.0016 µM in data set [2] and 9 µM on CYP3A4. In data set [1], this compound showed a fraction unbound at 60 min, 10 μM of 0.159.

With `CC(O)[C@H]1C(=O)N[C@H](Cc2ccccc2)C(=O)NCC#Cc2ccc(F)cc2OCCN[C@@H](C2(C)CC2)C(=O)N1C` (stereo partly drawn) [Compound 1918], in data set [4] (setting [5]), the clearance came to 14 ± 7 mL/min/kg. The compound further had a half-life in data set [4] (setting [5]) of 1.9 ± 0.883 h. Besides, the IC50 at CYP2D6 was 8.1 µM; in data set [2] it was 0.026 µM; on CYP3A4 it was 16.3 µM; in data set [3] it was 0.05 to 0.1 µM.

Usually IC50 stands for the midpoint of a concentration-inhibition curve. The term fraction unbound denotes the share of the substance not bound to proteins or other matrix. The term half-life denotes how long it takes for the measured level to halve. A low value points to rapid decline. The AUC(0-inf) is total exposure, with the tail of the curve extrapolated. Higher therefore signals high exposure. One may read the Cmax as the maximum level reached in the sampled fluid or tissue. By bioavailability is commonly meant the share of a dose that reaches the circulation, judged against a reference dose that is usually intravenous.

The values are drawn from patent US20110105389A1 (priority 2009, published 2011).
